Reference: PubChem BioAssay AID1918938 (Molecular Pharmacology Branch, DTP, NCI, 2023)

Test system: 556581-035-R-J1-PDC complex spheroid viability
Assay: Anticancer human tumor 556581-035-R-J1-PDC patient-derived ovarian carcinoma cell line growth inhibition
Conditions: for IC50: curve of first compound; for viability, T/C: stronger effect = lower value
In short: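 Complex spheroids of tumor cells with HUVEC and human MSCs, exposed to iadademstat combined with other agents. Each agent tested in half-log steps from near clinical Cmax (else 10 microM top), DMSO ≤0.25%.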

[1] = second compound 0.1 µM, first compound 0.000316 µM
[2] = second compound 0.1 µM, first compound 0.001 µM
[3] = second compound 0.1 µM, first compound 0.00316 µM
[4] = second compound 0.1 µM, first compound 0.01 µM
[5] = second compound 0.1 µM, first compound 0.0316 µM
[6] = second compound 0.1 µM, first compound 0.1 µM
[7] = second compound 0.316 µM, first compound 0.000316 µM
[8] = second compound 0.316 µM, first compound 0.001 µM
[9] = second compound 0.316 µM, first compound 0.00316 µM
[10] = second compound 0.316 µM, first compound 0.01 µM
[11] = second compound 0.316 µM, first compound 0.0316 µM
[12] = second compound 0.316 µM, first compound 0.1 µM
[13] = second compound 1 µM, first compound 0.000316 µM
[14] = second compound 1 µM, first compound 0.001 µM
[15] = second compound 1 µM, first compound 0.00316 µM
[16] = second compound 1 µM, first compound 0.01 µM
[17] = second compound 1 µM, first compound 0.0316 µM
[18] = second compound 1 µM, first compound 0.1 µM
[19] = second compound 3.16 µM, first compound 0.000316 µM
[20] = second compound 3.16 µM, first compound 0.001 µM
[21] = second compound 3.16 µM, first compound 0.00316 µM
[22] = second compound 3.16 µM, first compound 0.01 µM
[23] = second compound 3.16 µM, first compound 0.0316 µM
[24] = second compound 3.16 µM, first compound 0.1 µM
[25] = second compound 10 µM, first compound 0.000316 µM
[26] = second compound 10 µM, first compound 0.001 µM
[27] = second compound 10 µM, first compound 0.00316 µM
[28] = second compound 10 µM, first compound 0.01 µM
[29] = second compound 10 µM, first compound 0.0316 µM
[30] = second compound 10 µM, first compound 0.1 µM
[31] = second compound 0.1 µM, first compound 0.00949 µM
[32] = second compound 0.1 µM, first compound 0.03 µM
[33] = second compound 0.1 µM, first compound 0.0949 µM
[34] = second compound 0.1 µM, first compound 0.3 µM
[35] = second compound 0.316 µM, first compound 0.00949 µM
[36] = second compound 0.316 µM, first compound 0.03 µM
[37] = second compound 0.316 µM, first compound 0.0949 µM
[38] = second compound 0.316 µM, first compound 0.3 µM
[39] = second compound 1 µM, first compound 0.00949 µM
[40] = second compound 1 µM, first compound 0.03 µM
[41] = second compound 1 µM, first compound 0.0949 µM
[42] = second compound 1 µM, first compound 0.3 µM
[43] = second compound 3.16 µM, first compound 0.00949 µM
[44] = second compound 3.16 µM, first compound 0.03 µM
[45] = second compound 3.16 µM, first compound 0.0949 µM
[46] = second compound 3.16 µM, first compound 0.3 µM
[47] = second compound 10 µM, first compound 0.00949 µM
[48] = second compound 10 µM, first compound 0.03 µM
[49] = second compound 10 µM, first compound 0.0949 µM
[50] = second compound 10 µM, first compound 0.3 µM
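Also: spheroids exposed to agents for seven days.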
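For viability, T/C in this document: 100% = DMSO vehicle control wells.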

CC(C)CC(NC(=O)C(Cc1ccccc1)NC(=O)c1cnccn1)B(O)O (stereo not given) + NC1CCC(NC2CC2c2ccccc2)CC1
IC50 (second compound 0.1 µM): < 0.316 nM
IC50 (second compound 0.316 µM): < 0.316 nM
IC50 (second compound 1 µM): < 0.316 nM
IC50 (second compound 3.16 µM): < 0.316 nM
IC50 (second compound 10 µM): < 0.316 nM
viability, T/C [1]: 7.87%
viability, T/C [2]: 0.11%
viability, T/C [3]: 0.13%
viability, T/C [4]: 0.13%
viability, T/C [5]: 0.08%
viability, T/C [6]: 0.24%
viability, T/C [7]: 7.18%
viability, T/C [8]: 0.45%
viability, T/C [9]: 0.63%
viability, T/C [10]: 0.39%
viability, T/C [11]: 0.44%
viability, T/C [12]: 1.89%
viability, T/C [13]: 11.7%
viability, T/C [14]: 0.44%
viability, T/C [15]: 0.91%
viability, T/C [16]: 0.17%
viability, T/C [17]: 0.08%
viability, T/C [18]: 0.43%
viability, T/C [19]: 7.91%
viability, T/C [20]: 0.49%
viability, T/C [21]: 0.13%
viability, T/C [22]: 0.07%
viability, T/C [23]: 0.75%
viability, T/C [24]: 0.19%
viability, T/C [25]: 5.64%
viability, T/C [26]: 0.22%
viability, T/C [27]: 0.25%
viability, T/C [28]: 0.49%
viability, T/C [29]: 0.46%
viability, T/C [30]: 0.24%

CC(C)CC(NC(=O)CNC(=O)c1cc(Cl)ccc1Cl)B1OC(=O)CC(CC(=O)O)(C(=O)O)O1 (stereo not given) + NC1CCC(NC2CC2c2ccccc2)CC1
IC50 (second compound 0.1 µM): 4.01 nM
IC50 (second compound 0.316 µM): 4.35 nM
IC50 (second compound 1 µM): 4.48 nM
IC50 (second compound 3.16 µM): 4.6 nM
IC50 (second compound 10 µM): 3.25 nM
viability, T/C [1]: 90.7%
viability, T/C [2]: 99.5%
viability, T/C [3]: 62.3%
viability, T/C [4]: 3.38%
viability, T/C [5]: 0.24%
viability, T/C [6]: 0.3%
viability, T/C [7]: 95.5%
viability, T/C [8]: 93.4%
viability, T/C [9]: 67.6%
viability, T/C [10]: 4.37%
viability, T/C [11]: 0.84%
viability, T/C [12]: 0.84%
viability, T/C [13]: 86.2%
viability, T/C [14]: 88%
viability, T/C [15]: 69.7%
viability, T/C [16]: 4.47%
viability, T/C [17]: 0.33%
viability, T/C [18]: 0.17%
viability, T/C [19]: 91.3%
viability, T/C [20]: 86%
viability, T/C [21]: 72.4%
viability, T/C [22]: 3.59%
viability, T/C [23]: 0.33%
viability, T/C [24]: 0.6%
viability, T/C [25]: 72.3%
viability, T/C [26]: 90.1%
viability, T/C [27]: 51.2%
viability, T/C [28]: 2.53%
viability, T/C [29]: 0.48%
viability, T/C [30]: 0.7%

CCc1c2c(nc3ccc(O)cc13)-c1cc3c(c(=O)n1C2)COC(=O)[C@]3(O)CC + NC1CCC(NC2CC2c2ccccc2)CC1
IC50 (second compound 0.1 µM): < 0.949 nM
IC50 (second compound 0.316 µM): < 0.949 nM
IC50 (second compound 1 µM): < 0.949 nM
IC50 (second compound 3.16 µM): < 0.949 nM
IC50 (second compound 10 µM): < 0.949 nM
viability, T/C (second compound 0.1 µM, first compound 0.000949 µM): 20.5%
viability, T/C (second compound 0.1 µM, first compound 0.003 µM): 10.8%
viability, T/C [31]: 2.17%
viability, T/C [32]: 0.64%
viability, T/C [33]: 0.13%
viability, T/C [34]: 0.25%
viability, T/C (second compound 0.316 µM, first compound 0.000949 µM): 20.3%
viability, T/C (second compound 0.316 µM, first compound 0.003 µM): 12.4%
viability, T/C [35]: 3.03%
viability, T/C [36]: 1.28%
viability, T/C [37]: 0.23%
viability, T/C [38]: 0.24%
viability, T/C (second compound 1 µM, first compound 0.000949 µM): 20.2%
viability, T/C (second compound 1 µM, first compound 0.003 µM): 13.4%
viability, T/C [39]: 2.69%
viability, T/C [40]: 0.95%
viability, T/C [41]: 1.3%
viability, T/C [42]: 0.52%
viability, T/C (second compound 3.16 µM, first compound 0.000949 µM): 20.9%
viability, T/C (second compound 3.16 µM, first compound 0.003 µM): 10.9%
viability, T/C [43]: 2.33%
viability, T/C [44]: 0.37%
viability, T/C [45]: 0.36%
viability, T/C [46]: 0.53%
viability, T/C (second compound 10 µM, first compound 0.000949 µM): 20.1%
viability, T/C (second compound 10 µM, first compound 0.003 µM): 10.3%
viability, T/C [47]: 2.5%
viability, T/C [48]: 0.37%
viability, T/C [49]: 0.19%
viability, T/C [50]: 0.32%

Nc1ccccc1NC(=O)c1ccc(CNC(=O)OCc2cccnc2)cc1 + NC1CCC(NC2CC2c2ccccc2)CC1
IC50 (second compound 0.1 µM): 124 nM
IC50 (second compound 0.316 µM): 103 nM
IC50 (second compound 1 µM): 111 nM
IC50 (second compound 3.16 µM): 69.9 nM
IC50 (second compound 10 µM): 32.2 nM
viability, T/C [31]: 82.9%
viability, T/C [32]: 74.9%
viability, T/C [33]: 56.4%
viability, T/C [34]: 28.5%
viability, T/C (second compound 0.1 µM, first compound 0.949 µM): 17.6%
viability, T/C (second compound 0.1 µM, first compound 3 µM): 1.21%
viability, T/C [35]: 77.4%
viability, T/C [36]: 66.9%
viability, T/C [37]: 53.4%
viability, T/C [38]: 28.7%
viability, T/C (second compound 0.316 µM, first compound 0.949 µM): 15.9%
viability, T/C (second compound 0.316 µM, first compound 3 µM): 1.67%
viability, T/C [39]: 69%
viability, T/C [40]: 71.6%
viability, T/C [41]: 49.6%
viability, T/C [42]: 32.1%
viability, T/C (second compound 1 µM, first compound 0.949 µM): 17.1%
viability, T/C (second compound 1 µM, first compound 3 µM): 0.88%
viability, T/C [43]: 79.5%
viability, T/C [44]: 61.3%
viability, T/C [45]: 47.6%
viability, T/C [46]: 26.4%
viability, T/C (second compound 3.16 µM, first compound 0.949 µM): 18.2%
viability, T/C (second compound 3.16 µM, first compound 3 µM): 1.11%
viability, T/C [47]: 74%
viability, T/C [48]: 49%
viability, T/C [49]: 35.8%
viability, T/C [50]: 17%
viability, T/C (second compound 10 µM, first compound 0.949 µM): 9.24%
viability, T/C (second compound 10 µM, first compound 3 µM): 0.63%

O=C(c1cc(Cc2n[nH]c(=O)c3ccccc23)ccc1F)N1CCN(C(=O)C2CC2)CC1 + NC1CCC(NC2CC2c2ccccc2)CC1
IC50 (second compound 0.1 µM): > 10000 nM
IC50 (second compound 0.316 µM): > 10000 nM
IC50 (second compound 1 µM): > 10000 nM
IC50 (second compound 3.16 µM): > 10000 nM
IC50 (second compound 10 µM): > 10000 nM
viability, T/C [5]: 85.8%
viability, T/C [6]: 93.2%
viability, T/C (second compound 0.1 µM, first compound 0.316 µM): 91.7%
viability, T/C (second compound 0.1 µM, first compound 1 µM): 85.3%
viability, T/C (second compound 0.1 µM, first compound 3.16 µM): 83.9%
viability, T/C (second compound 0.1 µM, first compound 10 µM): 65%
viability, T/C [11]: 87.2%
viability, T/C [12]: 93.7%
viability, T/C (second compound 0.316 µM, first compound 0.316 µM): 90.7%
viability, T/C (second compound 0.316 µM, first compound 1 µM): 86%
viability, T/C (second compound 0.316 µM, first compound 3.16 µM): 62.8%
viability, T/C (second compound 0.316 µM, first compound 10 µM): 65.8%
viability, T/C [17]: 77.4%
viability, T/C [18]: 84.4%
viability, T/C (second compound 1 µM, first compound 0.316 µM): 83.6%
viability, T/C (second compound 1 µM, first compound 1 µM): 78.6%
viability, T/C (second compound 1 µM, first compound 3.16 µM): 72.6%
viability, T/C (second compound 1 µM, first compound 10 µM): 61.3%
viability, T/C [23]: 74.5%
viability, T/C [24]: 73.9%
viability, T/C (second compound 3.16 µM, first compound 0.316 µM): 77.6%
viability, T/C (second compound 3.16 µM, first compound 1 µM): 66.3%
viability, T/C (second compound 3.16 µM, first compound 3.16 µM): 58.1%
viability, T/C (second compound 3.16 µM, first compound 10 µM): 66.5%
viability, T/C [29]: 74.2%
viability, T/C [30]: 77.5%
viability, T/C (second compound 10 µM, first compound 0.316 µM): 69%
viability, T/C (second compound 10 µM, first compound 1 µM): 69.4%
viability, T/C (second compound 10 µM, first compound 3.16 µM): 58.7%
viability, T/C (second compound 10 µM, first compound 10 µM): 55.9%
